Test [1] deals with T1, Prolyl Oligopeptidase (POP) (Homo sapiens, UniProt P48147).
T1 construct: gene PREP; recombinant human POP (rhPOP), GST moiety removed
T1 sequence (P48147 1-710): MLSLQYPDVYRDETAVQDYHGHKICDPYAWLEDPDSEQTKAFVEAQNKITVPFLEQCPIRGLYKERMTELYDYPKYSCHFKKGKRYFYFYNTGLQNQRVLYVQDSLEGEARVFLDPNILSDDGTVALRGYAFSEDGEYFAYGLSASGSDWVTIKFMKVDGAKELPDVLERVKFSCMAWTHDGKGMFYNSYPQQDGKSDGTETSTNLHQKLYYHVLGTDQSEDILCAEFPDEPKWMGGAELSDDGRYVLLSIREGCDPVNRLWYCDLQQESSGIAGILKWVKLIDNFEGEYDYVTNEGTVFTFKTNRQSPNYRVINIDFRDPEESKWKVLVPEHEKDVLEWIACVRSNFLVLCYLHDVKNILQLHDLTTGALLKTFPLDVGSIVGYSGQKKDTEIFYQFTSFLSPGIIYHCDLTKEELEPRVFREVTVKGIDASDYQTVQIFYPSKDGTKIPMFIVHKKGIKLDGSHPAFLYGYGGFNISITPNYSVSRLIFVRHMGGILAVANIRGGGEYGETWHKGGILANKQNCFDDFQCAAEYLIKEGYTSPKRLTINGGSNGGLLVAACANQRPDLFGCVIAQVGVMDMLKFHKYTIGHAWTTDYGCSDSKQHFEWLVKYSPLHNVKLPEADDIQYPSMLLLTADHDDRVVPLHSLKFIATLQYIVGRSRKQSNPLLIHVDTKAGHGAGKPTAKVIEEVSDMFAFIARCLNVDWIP
Put plainly: RP-HPLC cleavage assay with purified rhPOP (TRH as substrate); Dixon plots. Type of test: biochemical.

The target of test [2] is T1, Prolyl Oligopeptidase (POP). Put plainly: RP-HPLC cleavage assay with purified rhPOP (TRH as substrate); Km/Vmax and Dixon plots. Type of test: biochemical.

Usually IC50 stands for the point on the concentration scale where inhibition reaches its midpoint. A low value points to higher potency. Regarding `O=C(CCC(=O)N1CCCC1)c1ccccc1` [T6816369], in test [1], the IC50 turned out to be 32.1 µM.
In test [2], `CCOC(=O)CN1C(=O)NC(CC)(c2ccccc2)C1=O` (centres unmarked) [T5450157] registered an IC50 of 130 µM.

Values taken from paper PMC7112232, “Computational design of substrate selective inhibition” (PLoS Computational Biology, 2020).
